Holding throughout (assay type): biochemical
In experiment [1] the target is T1, human JAK1 (a.a. 837-1142) (Homo sapiens, UniProt P23458).
T1 construct: human JAK1 (a.a. 837-1142); His tag (N); made in house; host or cells: insect cells (baculovirus)
The experiment is described as follows: In vitro JAK kinase assay (HTRF, phosphorylation of a biotinylated peptide), JAK1. The settings on record: read-out: JAK1 IC50. The procedure, abridged: (§1)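 Kinase reactions ran at room temperature for 1 h with ATP matched per isoform (JAK1 90 μM, JAK2 30 μM, JAK3 3 μM). After an EDTA stop, the phosphorylated biotin-peptide was read by HTRF using Eu-Py20 and SA-APC after 40 min binding.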

The target of experiment [2] is T2, human JAK2 (a.a. 828-1132) (Homo sapiens, UniProt O60674).
T2 construct: JAK2 (a.a. 828-1132); His tag (N); made in house; host or cells: insect cells (baculovirus)
T2 sequence (O60674 828-1132): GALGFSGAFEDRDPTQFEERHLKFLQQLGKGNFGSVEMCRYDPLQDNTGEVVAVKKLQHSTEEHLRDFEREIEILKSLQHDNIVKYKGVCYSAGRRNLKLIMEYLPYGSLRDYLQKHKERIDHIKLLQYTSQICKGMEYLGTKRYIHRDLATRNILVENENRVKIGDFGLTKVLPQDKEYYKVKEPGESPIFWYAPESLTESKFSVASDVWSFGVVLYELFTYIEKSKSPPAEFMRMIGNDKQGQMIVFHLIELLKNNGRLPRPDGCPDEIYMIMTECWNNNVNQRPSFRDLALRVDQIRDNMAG
The experiment is described as follows: In vitro JAK kinase assay (HTRF, phosphorylation of a biotinylated peptide), JAK2. The procedure, abridged: as §1
(In TR-FRET formats the signal depends on donor and acceptor labels being close together.)

In experiment [3] the target is T3, human JAK3 (a.a. 781-1124) (Homo sapiens, UniProt P52333).
T3 construct: JAK3 (a.a. 781-1124); His tag (N); made in house; host or cells: insect cells (baculovirus)
T3 sequence (P52333 781-1124): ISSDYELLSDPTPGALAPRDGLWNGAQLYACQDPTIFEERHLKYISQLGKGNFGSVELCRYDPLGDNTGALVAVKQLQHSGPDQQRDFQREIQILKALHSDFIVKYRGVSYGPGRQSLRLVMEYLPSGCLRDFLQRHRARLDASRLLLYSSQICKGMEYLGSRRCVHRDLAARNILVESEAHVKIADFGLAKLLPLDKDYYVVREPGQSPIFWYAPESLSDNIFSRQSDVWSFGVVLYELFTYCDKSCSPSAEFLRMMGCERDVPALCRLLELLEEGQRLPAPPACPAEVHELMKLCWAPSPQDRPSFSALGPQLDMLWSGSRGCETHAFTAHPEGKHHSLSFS
The experiment is described as follows: In vitro JAK kinase assay (HTRF, phosphorylation of a biotinylated peptide), JAK3. The procedure, abridged:
as §1

Experiment [4] addresses TYK2 (Homo sapiens, UniProt P29597). The experiment in a line: TYK2 kinase inhibition (Table A1).
In experiment [5] the target is T4, Recombinant Human Anaplastic Lymphoma Kinase (Homo sapiens, UniProt Q9UM73).
T4 construct: purchased Invitrogen, Carlsbad, Calif
T4 sequence (Q9UM73 19-1620): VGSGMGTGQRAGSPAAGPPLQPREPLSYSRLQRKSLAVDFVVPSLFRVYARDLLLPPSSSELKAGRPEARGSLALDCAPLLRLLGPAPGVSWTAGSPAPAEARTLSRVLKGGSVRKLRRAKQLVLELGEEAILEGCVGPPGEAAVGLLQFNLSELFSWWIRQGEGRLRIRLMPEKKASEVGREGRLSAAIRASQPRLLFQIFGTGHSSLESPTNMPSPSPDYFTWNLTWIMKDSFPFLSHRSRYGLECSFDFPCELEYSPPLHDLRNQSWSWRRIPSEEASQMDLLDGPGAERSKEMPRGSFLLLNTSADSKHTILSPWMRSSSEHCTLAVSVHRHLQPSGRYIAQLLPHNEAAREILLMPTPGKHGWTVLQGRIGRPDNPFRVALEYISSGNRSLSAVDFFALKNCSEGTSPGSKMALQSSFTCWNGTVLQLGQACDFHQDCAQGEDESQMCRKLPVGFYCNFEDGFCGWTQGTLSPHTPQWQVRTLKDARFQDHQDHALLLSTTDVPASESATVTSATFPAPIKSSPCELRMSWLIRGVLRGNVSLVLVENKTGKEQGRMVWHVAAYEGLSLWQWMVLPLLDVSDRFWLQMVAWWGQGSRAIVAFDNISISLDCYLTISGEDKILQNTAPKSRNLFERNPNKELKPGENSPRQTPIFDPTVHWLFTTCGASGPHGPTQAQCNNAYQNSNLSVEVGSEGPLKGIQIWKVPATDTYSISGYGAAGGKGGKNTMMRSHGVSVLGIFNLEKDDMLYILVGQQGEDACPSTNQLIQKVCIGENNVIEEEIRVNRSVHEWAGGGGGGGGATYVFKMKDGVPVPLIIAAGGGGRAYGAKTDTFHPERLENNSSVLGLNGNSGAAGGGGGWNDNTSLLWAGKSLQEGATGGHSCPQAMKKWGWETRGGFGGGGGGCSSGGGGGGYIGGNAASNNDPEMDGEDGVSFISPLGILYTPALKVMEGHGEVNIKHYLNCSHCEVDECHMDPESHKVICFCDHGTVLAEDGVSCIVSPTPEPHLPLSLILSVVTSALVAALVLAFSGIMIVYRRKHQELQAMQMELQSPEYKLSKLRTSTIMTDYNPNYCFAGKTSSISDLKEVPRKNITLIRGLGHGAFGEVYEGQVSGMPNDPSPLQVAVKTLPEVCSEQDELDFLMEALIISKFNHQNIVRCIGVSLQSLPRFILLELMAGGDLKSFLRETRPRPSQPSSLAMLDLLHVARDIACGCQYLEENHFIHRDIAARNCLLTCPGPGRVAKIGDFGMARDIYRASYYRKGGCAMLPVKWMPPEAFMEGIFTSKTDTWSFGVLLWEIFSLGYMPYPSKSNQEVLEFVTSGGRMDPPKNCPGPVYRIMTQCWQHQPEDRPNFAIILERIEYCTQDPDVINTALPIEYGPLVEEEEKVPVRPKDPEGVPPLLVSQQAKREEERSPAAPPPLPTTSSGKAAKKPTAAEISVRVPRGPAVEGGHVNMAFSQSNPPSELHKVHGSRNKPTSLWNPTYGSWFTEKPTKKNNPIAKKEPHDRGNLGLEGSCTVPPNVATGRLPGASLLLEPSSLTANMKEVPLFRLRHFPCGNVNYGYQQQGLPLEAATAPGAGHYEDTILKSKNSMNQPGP
The experiment in a line: ALK HTRF kinase assay. The method, boiled down:
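Compounds were incubated with recombinant human ALK and a biotin-tagged peptide substrate. Product was captured with streptavidin-APC and probed with a europium anti-phosphotyrosine antibody, and plates were read for time-resolved fluorescence. Dose-response data were fitted to derive IC50.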

Where [6] appears, read: compound at a concentration of 500 nM or 1 mM (not specified), cells shown as percentage.
[7] abbreviates: method AA1 (90 μM ATP) or AA2 (1000 μM ATP), not stated per value.
Where [8] appears, read: method AA1 (30 μM ATP) or AA2 (1000 μM ATP), not stated per value.
Where [9] appears, read: method AA1 (3 μM ATP) or AA2 (1000 μM ATP), not stated per value.
Where [10] appears, read: compound at 500 nM or 1 mM, 90 μM ATP.

Here are results for 11 compounds from patent publication US8871753B2, “Macrocyclic compounds and their use as kinase inhibitors” (Incyte Corporation, priority 2008, dated 2014).

Where a name gives a salt, the structure may show the parent alone. Read-outs that look alike come from different tables or passages of the source. Some results are limits rather than exact numbers.

Broadly, the IC50 is the point on the concentration scale where inhibition reaches its midpoint.

T1 sequence (P23458 849-1154): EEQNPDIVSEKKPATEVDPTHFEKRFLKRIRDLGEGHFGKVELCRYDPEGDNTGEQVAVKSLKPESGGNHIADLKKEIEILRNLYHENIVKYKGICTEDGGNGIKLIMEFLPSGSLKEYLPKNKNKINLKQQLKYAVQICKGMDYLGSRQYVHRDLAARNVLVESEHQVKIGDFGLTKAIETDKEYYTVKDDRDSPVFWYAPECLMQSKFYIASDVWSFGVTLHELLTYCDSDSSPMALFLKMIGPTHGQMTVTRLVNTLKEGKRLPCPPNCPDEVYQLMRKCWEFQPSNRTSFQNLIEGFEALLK
Sequence of TYK2 (P29597 whole entry): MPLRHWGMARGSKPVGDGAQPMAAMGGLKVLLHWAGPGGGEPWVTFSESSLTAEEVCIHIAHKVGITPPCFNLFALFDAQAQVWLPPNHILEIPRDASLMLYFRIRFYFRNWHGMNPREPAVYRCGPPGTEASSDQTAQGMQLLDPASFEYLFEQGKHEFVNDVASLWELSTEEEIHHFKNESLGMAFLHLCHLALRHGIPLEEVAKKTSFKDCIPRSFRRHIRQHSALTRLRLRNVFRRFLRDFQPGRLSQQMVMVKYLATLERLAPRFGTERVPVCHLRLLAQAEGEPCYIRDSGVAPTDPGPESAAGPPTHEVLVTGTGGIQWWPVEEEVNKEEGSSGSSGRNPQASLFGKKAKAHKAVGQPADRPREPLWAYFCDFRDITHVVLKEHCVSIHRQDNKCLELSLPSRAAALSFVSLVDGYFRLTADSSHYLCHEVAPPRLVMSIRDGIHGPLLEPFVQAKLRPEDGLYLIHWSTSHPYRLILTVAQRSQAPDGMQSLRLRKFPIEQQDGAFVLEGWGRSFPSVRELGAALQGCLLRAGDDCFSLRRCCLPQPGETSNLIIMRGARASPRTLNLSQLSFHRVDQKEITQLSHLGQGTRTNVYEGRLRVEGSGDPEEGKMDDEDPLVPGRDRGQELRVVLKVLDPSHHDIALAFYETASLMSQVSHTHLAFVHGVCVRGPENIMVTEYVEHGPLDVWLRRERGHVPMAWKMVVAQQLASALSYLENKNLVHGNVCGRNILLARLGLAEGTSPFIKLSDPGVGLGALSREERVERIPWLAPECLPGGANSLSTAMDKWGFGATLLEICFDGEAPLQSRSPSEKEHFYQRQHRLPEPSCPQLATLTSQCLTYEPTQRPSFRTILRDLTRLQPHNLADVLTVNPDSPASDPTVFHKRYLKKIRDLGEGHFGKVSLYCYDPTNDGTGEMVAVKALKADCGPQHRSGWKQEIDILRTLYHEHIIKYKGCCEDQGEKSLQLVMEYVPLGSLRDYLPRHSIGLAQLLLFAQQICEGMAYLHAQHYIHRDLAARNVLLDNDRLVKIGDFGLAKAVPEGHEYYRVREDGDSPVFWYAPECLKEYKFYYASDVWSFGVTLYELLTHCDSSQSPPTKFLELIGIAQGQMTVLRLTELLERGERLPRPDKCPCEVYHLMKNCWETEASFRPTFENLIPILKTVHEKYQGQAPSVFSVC

As for `O=C(Nc1ccc2cc1CCc1cccc(c1)Nc1ncc(Cl)c(n1)N2)c1cnc2ccccc2n1` [Example B72, N-[6-Chloro-2,4,8,22-tetraazatetracyclo[14.3.1.1(3,7).1(9,13)]docosa-1(20), 3(22),4,6,9(21),10,12,16,18-nonaen-12-yl]quinoxaline-2-carboxamide bis(trifluoroacetate)], the concentration for half-maximal inhibition (IC50) in experiment [1] (Table B1) was 200 nM; in experiment [2] (Table B1), 55 nM; in experiment [3] (Table B1), over 500 nM; in experiment [4] (Table B1) it was 77 nM. Also, the “ALK % of inhibition at a concentration of 500 nM or 1 mM” value (from here on “ALK % of inhibition”) in experiment [5] (setting [6]) is reported as 12%.

Regarding `Cn1cc(C(=O)N2CCC(CC(=O)Nc3ccc4cc3CCc3cncc(c3)Nc3ncc(Cl)c(n3)N4)CC2)cn1` [Example A129, N-[6-Chloro-2,4,8,18,22-pentaazatetracyclo[14.3.1.1(3,7).1(9,13)]docosa-1(20),3(22),4,6,9(21),10,12,16,18-nonaen-12-yl]-2-{1-[(1-methyl-1H-pyrazol-4-yl)carbonyl]piperidin-4-yl}acetamide bis(trifluoroacetate)], the IC50 was 12 nM in experiment [1] (setting [7]), 17 nM in experiment [2] (setting [8]), 178 nM in experiment [3] (setting [9]) and 24 nM in experiment [4]. Moreover, the “ALK % of inhibition” value in experiment [5] (setting [10]) came out at 32%.

Take `O=C(Nc1ccc(CCO)cc1)c1cc2cc(c1)Nc1nc(ncc1Cl)Nc1cccc(c1)CC2` [Example B10, 6-Chloro-N-[4-(2-hydroxyethyl)phenyl]-2,4,8,22-tetraazatetracyclo[14.3.1.1(3,7).1(9,13)]docosa-1(20),3(22),4,6,9(21),10,12,16,18-nonaene-11-carboxamide trifluoroacetate]: the IC50 was determined as 68 nM in experiment [1] (Table B1); 12 nM in experiment [2] (Table B1); 51 nM in experiment [3] (Table B1); 172 nM in experiment [4] (Table B1); 1960 nM in experiment [5] (Table B1, cells without percent sign).

In the case of `CC(C)c1oncc1C(=O)N1CCC(CC(=O)Nc2ccc3cc2CCc2cncc(c2)Nc2ncc(Cl)c(n2)N3)CC1` [Example A218, N-[6-Chloro-2,4,8,18,22-pentaazatetracyclo[14.3.1.1(3,7).1(9,13)]docosa-1(20),3(22),4,6,9(21),10,12,16,18-nonaen-12-yl]-2-{1-[(5-isopropylisoxazol-4-yl)carbonyl]piperidin-4-yl}acetamide bis(trifluoroacetate)], the IC50 in experiment [1] (setting [7]) is 74 nM; in experiment [2] (setting [8]) it was over 200 nM; in experiment [3] (setting [9]), over 200 nM; in experiment [4] it was over 200 nM. In addition, the “ALK % of inhibition” value in experiment [5] (setting [10]) is 26%.

Regarding `O=C(Nc1ccc2cc1CCc1cccc(c1)Nc1ncc(Cl)c(n1)N2)N1CCN(c2ccccn2)CC1` [Example B290, N-[6-Chloro-2,4,8,22-tetraazatetracyclo[14.3.1.1(3,7).1(9,13)]docosa-1(20),3(22),4,6,9(21),10,12,16,18-nonaen-12-yl]-4-pyridin-2-ylpiperazine-1-carboxamide bis(trifluoroacetate)], the half-inhibitory concentration (IC50) was 82 nM in experiment [1] (Table B1), 89 nM in experiment [2] (Table B1), over 200 nM in experiment [3] (Table B1) and 59 nM in experiment [4] (Table B1). Also, the “ALK % of inhibition” value in experiment [5] (setting [6]) came out at 50%.

As for `O=C(Nc1ccc2cc1CCc1cccc(c1)Nc1ncc(Cl)c(n1)N2)N[C@H]1CCN(C(=O)c2ccccc2)C1` [Example B170, N-[(3S)-1-Benzoylpyrrolidin-3-yl]-N′-[6-chloro-2,4,8,22-tetraazatetracyclo[14.3.1.1(3,7).1(9,13)]docosa-1(20),3(22),4,6,9(21),10,12,16,18-nonaen-12-yl]urea trifluoroacetate], the IC50 in experiment [1] (Table B1) was 1.6 nM; in experiment [2] (Table B1) it was 17 nM; in experiment [3] (Table B1), 228 nM; in experiment [4] (Table B1), 34 nM. In addition, the “ALK % of inhibition” value in experiment [5] (setting [6]) is 12%.

`O=C(CC1CCN(c2ncccn2)CC1)Nc1ccc2cc1CCc1cncc(c1)Nc1ncc(Cl)c(n1)N2` [Example A172, N-[6-Chloro-2,4,8,18,22-pentaazatetracyclo[14.3.1.1(3,7).1(9,13)]docosa-1(20),3(22),4,6,9(21),10,12,16,18-nonaen-12-yl]-2-(1-pyrimidin-2-ylpiperidin-4-yl)acetamide tris(trifluoroacetate)]: the IC50 was 11 nM in experiment [1] (setting [7]), 199 nM in experiment [2] (setting [8]), over 1000 nM in experiment [3] (setting [9]) and 237 nM in experiment [4]. For the same compound, in experiment [5] (setting [10]), the “ALK % of inhibition” value is given as 28%.

Turning to `Cc1noc(C)c1C(=O)N1CC[C@H](NC(=O)Nc2ccc3cc2CCc2cncc(c2)Nc2ncc(Cl)c(n2)N3)C1` [Example B274, N-[6-chloro-2,4,8,18,22-pentaazatetracyclo[14.3.1.1(3,7).1(9,13)]docosa-1(20),3(22),4,6,9(21),10,12,16,18-nonaen-12-yl]-N′-{(3S)-1-[(3,5-dimethylisoxazol-4-yl)carbonyl]pyrrolidin-3-yl}urea bis(trifluoroacetate)], the concentration for half-maximal inhibition (IC50) in experiment [1] (Table B1) was 60 nM; in experiment [2] (Table B1), 192 nM; in experiment [3] (Table B1), over 10000 nM; in experiment [4] (Table B1) it was 325 nM. Also, in experiment [5] (setting [6]), the “ALK % of inhibition” value is reported as 18%.

As for `Cc1cc(C(=O)N2CCC(CN(C)Cc3ccc4cc3CCc3cncc(c3)Nc3ncc(Cl)c(n3)N4)CC2)no1` [Example B344, 1-[6-Chloro-2,4,8,18,22-pentaazatetracyclo[14.3.1.1(3,7).1(9,13)]docosa-1(20),3(22),4,6,9(21),10,12,16,18-nonaen-12-yl]-N-methyl-N-({1-[(5-methylisoxazol-3-yl)carbonyl]piperidin-4-yl}methyl)methanamine tris(trifluoroacetate)], the half-inhibitory concentration (IC50) in experiment [1] (Table B1) is 14 nM; in experiment [2] (Table B1), 90 nM; in experiment [3] (Table B1), over 400 nM; in experiment [4] (Table B1), 276 nM. Besides, the “ALK % of inhibition” value in experiment [5] (percentage inhibition of the example compound at a concentration of 500 nM or 1 mM (not specified which)) stood at 43%.

As to `O=C(CC1CCN(c2ccncc2)CC1)Nc1ccc2cc1CCc1cncc(c1)Nc1ncc(Cl)c(n1)N2` [Example A242, N-[6-Chloro-2,4,8,18,22-pentaazatetracyclo[14.3.1.1(3,7).1(9,13)]docosa-1(20),3(22),4,6,9(21),10,12,16,18-nonaen-12-yl]-2-(1-pyridin-4-ylpiperidin-4-yl)acetamide tris(trifluoroacetate)], the IC50 in experiment [1] (setting [7]) was 40 nM; in experiment [2] (setting [8]), over 400 nM; in experiment [3] (setting [9]), over 400 nM; in experiment [4], over 400 nM. Besides, the “ALK % of inhibition” value in experiment [5] (setting [10]) came to 31%.

For `O=C(CC1CCN(C(=O)c2c[nH]nn2)CC1)Nc1ccc2cc1CCc1cncc(c1)Nc1ncc(Cl)c(n1)N2` [Example A137, N-[6-Chloro-2,4,8,18,22-pentaazatetracyclo[14.3.1.1(3,7).1(9,13)]docosa-1(20),3(22),4,6,9(21),10,12,16,18-nonaen-12-yl]-2-[1-(1H-1,2,3-triazol-4-ylcarbonyl)piperidin-4-yl]acetamide bis(trifluoroacetate)], the 50% inhibitory concentration (IC50) in experiment [1] (setting [7]) stood at 0.6 nM; in experiment [2] (setting [8]) it was 3 nM; in experiment [3] (setting [9]), 41 nM; in experiment [4], 1 nM. Besides, in experiment [5] (setting [10]), the “ALK % of inhibition” value is reported as 54%.
